As a reminder, the EC50 is the concentration that produces a half-maximal response. A lower EC50 goes with higher potency in that assay.

Assay type in all cases: cell-based
One assay has as its system CMV. The assay is described as follows: in vitro antiviral activity against CMV. Conditions: for EC50: Human betaherpesvirus 5, CMV, in vitro.
The test system of the next assay is EBV. The assay is described as follows: in vitro antiviral activity against EBV.
The next assay deals with VZV. Briefly: in vitro antiviral activity against VZV.
Another assay concerns HSV-1. Briefly: in vitro antiviral activity against HSV-1. Conditions: CMX001 versus cidofovir EC50, HSV-1.
In the next assay the test system is HHV-6. Briefly: in vitro antiviral activity against HHV-6. The note with it: for EC50: HHV-6, in vitro.

On to `CCCCCCCCCCCCCCCCOCCCOP(=O)(O)CO[C@H](CO)Cn1ccc(N)nc1=O` [CMX001], for which the “Enhanced Activity” value was 400 in the assay with CMV (CMX001 versus cidofovir EC50, CMV); more than 2700 with EBV (CMX001 versus cidofovir EC50, EBV); 125 with VZV (CMX001 versus cidofovir EC50, VZV); 92 with HSV-1; 771 in the assay on HHV-6 (CMX001 versus cidofovir EC50, HHV-6). The concentration for a half-maximal effect (EC50) was 1 nM in the assay on CMV and 7 nM with HHV-6.

In the case of `Nc1ccn(C[C@@H](CO)OCP(=O)(O)O)c(=O)n1` [Cidofovir, cidofovir, reference compound], the EC50 is 400 nM with CMV; more than 108000 nM with EBV (human gammaherpesvirus 4, EBV, in vitro); 500 nM in the assay with VZV (Human alphaherpesvirus 3, VZV, in vitro); 5400 nM with HHV-6.

Source of the values: patent US8614200B2, “Compounds, compositions and methods for treating ocular conditions” (Chimerix, Inc., priority 2009, dated 2013).
